Results: US9040528B2, “Chemical compounds 542” (AstraZeneca AB, priority 2008, dated 2015)

What follows are molecules tested against Escherichia coli DNA gyrase A/B tetramer (Escherichia coli (strain K12), UniProt P0AES4+P0AES6) (assay: DNA gyrase supercoiling activity fluorescence polarisation assay). Conditions: not given.
Format: biochemical
Method in brief: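 Supercoiling reactions quenched with 40 nM 5′-BODIPY-FL triplex-forming oligonucleotide probe in pH 3.5 NaCl/sodium acetate buffer; after 60 min, fluorescence anisotropy read (ex 485/em 535 nm). IC50 by nonlinear regression, normalised to 0.8% DMSO (100% activity) and 5 μM ciprofloxacin (0% activity).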

Row | SMILES | IC50 [µM]
1 | Cc1noc2c(F)c3c(cc12)CC1(C(=O)NC(=O)NC1=O)[C@H]1[C@H](C)C[C@H](C)CN31 (relative stereo) [Example 77, (2S,4R,4aR)-rel-11-fluoro-2,4,8-trimethyl-1,2,3,4,4a,6-hexahydro-1′H-spiro[isoxazolo[4,5-g]pyrido[1,2-a]quinoline-5,5′-pyrimidine]-2′,4′,6′(3′H)-trione] | 0.3

Same assay, conditions: 5 nM enzyme, relaxed plasmid, 0.3 mM ATP, ambient temperature; read-out: E. coli DNA gyrase supercoiling IC50

Row | SMILES | IC50 [µM]
2 | Cc1noc2c(F)c3c(cc12)CC1(C(=O)NC(=O)NC1=O)[C@@H]1[C@@H](C)O[C@@H](C)CN31 [Example 2(a), (2S,4R,4aR)-11-fluoro-2,4,8-trimethyl-2,4,4a,6-tetrahydro-1′H,1′H-spiro[isoxazolo[4,5-g][1,4]oxazino[4,3-a]quinoline-5,5′-pyrimidine]-2′,4′,6′(3′H)-trione] | 83
3 | C[C@@H]1CN2c3c(cc4c(C(=O)N5CCS(=O)(=O)CC5)noc4c3F)CC3(C(=O)NC(=O)NC3=O)[C@H]2[C@H](C)O1 (relative stereo) [Example 145, (2R,4S,4aS)-rel-8-[(1,1-dioxidothiomorpholin-4-yl)carbonyl]-11-fluoro-2,4-dimethyl-1,2,4,4a-tetrahydro-2′H,6H-spiro[isoxazolo[4,5-g][1,4]oxazino[4,3-a]quinoline-5,5′-pyrimidine]-2′,4′,6′(1′H,3′H)-trione] | 5.2
4 | C[C@@H]1CN2c3c(cc4c(-n5cc(Cl)cn5)noc4c3F)CC3(C(=O)NC(=O)NC3=O)[C@H]2[C@H](C)O1 (relative stereo) [Example 61, (2R,4S,4aS)-rel-8-(4-chloro-1H-pyrazol-1-yl)-11-fluoro-2,4-dimethyl-1,2,4,4a-tetrahydro-2′H,6H-spiro[1,4-oxazino[4,3-a][1,2]oxazolo[4,5-g]quinoline-5,5′-pyrimidine]-2′,4′,6′(1′H,3′H)-trione] | 9.3
5 | CSc1nccc(-c2noc3c(F)c4c(cc23)CC2(C(=O)NC(=O)NC2=O)[C@H]2[C@H](C)O[C@H](C)CN42)n1 [Example 168, (2R,4S,4aS)-11-fluoro-2,4-dimethyl-8-(2-(methylthio)pyrimidin-4-yl)-2,4,4a,6-tetrahydro-1H,1′H-spiro[isoxazolo[4,5-g][1,4]oxazino[4,3-a]quinoline-5,5′-pyrimidine]-2′,4′,6′(3′H)-trione] | 0.6
6 | C[C@@H]1CN2c3c(cc4c(-c5nccs5)noc4c3F)CC3(C(=O)NC(=O)NC3=O)[C@H]2[C@H](C)O1 [Example 96, (2R,4S,4aS)-11-fluoro-2,4-dimethyl-8-(thiazol-2-yl)-2,4,4a,6-tetrahydro-1H,1′H-spiro[isoxazolo[4,5-g][1,4]oxazino[4,3-a]quinoline-5,5′-pyrimidine]-2′,4′,6′(3′H)-trione] | 0.7
7 | C[C@@H]1CN2c3c(cc4c(C(=O)NCC5CCCCC5)noc4c3F)CC3(C(=O)NC(=O)NC3=O)[C@H]2[C@H](C)O1 (relative stereo) [Example 156, (2R,4S,4aS)-rel-N-(cyclohexylmethyl)-11-fluoro-2,4-dimethyl-2′,4′,6′-trioxo-2,2′,3′,4,4a,4′,6,6′-octahydro-1H,1′H-spiro[isoxazolo[4,5-g][1,4]oxazino[4,3-a]quinoline-5,5′-pyrimidine]-8-carboxamide] | 1.5
8 | CCCNc1noc2c(F)c3c(cc12)CC1(C(=O)NC(=O)NC1=O)[C@H]1[C@H](C)O[C@H](C)CN31 (relative stereo) [Example 31, (2R,4S,4aS)-rel-11-fluoro-2,4-dimethyl-8-(propylamino)-1,2,4,4a-tetrahydro-2′H,6H-spiro[1,4-oxazino[4,3-a][1,2]oxazolo[4,5-g]quinoline-5,5′-pyrimidine]-2′,4′,6′(1′H,3′H)-trione] | 2.2
9 | Cc1noc2c(F)c3c(cc12)CC1(C(=O)NC(=O)NC1=O)[C@H]1[C@H](C)O[C@H](C(F)(F)F)CN31 (relative stereo) [Example 149, (2S,4S,4aS)-rel-11-fluoro-4,8-dimethyl-2-(trifluoromethyl)-1,2,4,4a-tetrahydro-2′H,6H-spiro[isoxazolo[4,5-g][1,4]oxazino[4,3-a]quinoline-5,5′-pyrimidine]-2′,4′,6′(1′H,3′H)-trione] | 4.4
10 | CC(=O)Nc1noc2c(F)c3c(cc12)CC1(C(=O)NC(=O)NC1=O)[C@H]1[C@H](C)O[C@H](C)CN31 (relative stereo) [Example 6, N-[(2R,4S,4aS)-rel-11-fluoro-2,4-dimethyl-2′,4′,6′-trioxo-1,1′,2,3′,4,4′,4a,6′-octahydro-2′H,6H-spiro[isoxazolo[4,5-g][1,4]oxazino[4,3-a]quinoline-5,5′-pyrimidin]-8-yl]acetamide] | 0.8
11 | C[C@@H]1CN2c3c(cc4c(C(=O)NC5CCOCC5)noc4c3F)CC3(C(=O)NC(=O)NC3=O)[C@H]2[C@H](C)O1 (relative stereo) [Example 146, (2R,4S,4aS)-rel-11-fluoro-2,4-dimethyl-2′,4′,6′-trioxo-N-(tetrahydro-2H-pyran-4-yl)-2,2′,3′,4,4a,4′,6,6′-octahydro-1H,1′H-spiro[isoxazolo[4,5-g][1,4]oxazino[4,3-a]quinoline-5,5′-pyrimidine]-8-carboxamide] | 4.9
12 | C[C@H]1CN2c3c(cc4c(-c5ncccn5)noc4c3F)CC3(C(=O)NC(=O)NC3=O)[C@@H]2[C@@H](C)O1 [Example 148(a), (2S,4R,4aR)-11-fluoro-2,4-dimethyl-8-(pyrimidin-2-yl)-2,4,4a,6-tetrahydro-1H,1′H-spiro[isoxazolo[4,5-g][1,4]oxazino[4,3-a]quinoline-5,5′-pyrimidine]-2′,4′,6′(3′H)-trione] | 83
13 | C[C@@H]1CN2c3c(nc4c(C(=O)N5CC(F)(F)C5)noc4c3Cl)CC3(C(=O)NC(=O)NC3=O)[C@H]2[C@H](C)O1 (relative stereo) [Example 130, (2R,4S,4aS)-rel-11-Chloro-8-(3,3-difluoroazetidine-1-carbonyl)-2,4-dimethyl-2,4,4a,6-tetrahydro-1H,1′H-spiro[isoxazolo[4,5-g][1,4]oxazino[4,3-a][1,5]naphthyridine-5,5′-pyrimidine]-2′,4′,6′(3′H)-trione] | 30
14 | CCN(CC)c1noc2c(F)c3c(cc12)CC1(C(=O)NC(=O)NC1=O)[C@H]1[C@H](C)O[C@H](C)CN31 (relative stereo) [Example 23, (2R,4S,4aS)-rel-8-(diethylamino)-11-fluoro-2,4-dimethyl-1,2,4,4a-tetrahydro-2′H,6H-spiro[isoxazolo[4,5-g][1,4]oxazino[4,3-a]quinoline-5,5′-pyrimidine]-2′,4′,6′(1′H,3′H)-trione] | 4.3
15 | C[C@@H]1CN2c3c(cc4c(C(=O)NCC5CC5)noc4c3F)CC3(C(=O)NC(=O)NC3=O)[C@H]2[C@H](C)O1 (relative stereo) [Example 152, (2R,4S,4aS)-rel-N-(cyclopropylmethyl)-11-fluoro-2,4-dimethyl-2′,4′,6′-trioxo-2,2′,3′,4,4a,4′,6,6′-octahydro-1H,1′H-spiro[isoxazolo[4,5-g][1,4]oxazino[4,3-a]quinoline-5,5′-pyrimidine]-8-carboxamide] | 2.1
16 | Cc1ccc(-c2noc3c(Cl)c4c(cc23)CC2(C(=O)NC(=O)NC2=O)[C@H]2[C@H](C)O[C@H](C)CN42)cn1 (relative stereo) [Example 40, (2R,4S,4 aS)-rel-11-chloro-2,4-dimethyl-8-(6-methylpyridin-3-yl)-1,2,4,4a-tetrahydro-2′H,6H-spiro[1,4-oxazino[4,3-a][1,2]oxazolo[4,5-g]quinoline-5,5′-pyrimidine]-2′,4′,6′(1′H,3′H)-trione] | 1.6
